Where two headings read alike, the source gives them in different places.
Legend:
SK-N-SH cells [1] = test: CCK-8 cell viability, individual and combined exposure (CI/DRI analysis), SK-N-SH cells; assay type: cell-based, human; settings: for IC50: Homo sapiens
Protocol: (§1) The cytotoxicity of individual contaminations was evaluated using dose–response curves, from which half-maximal inhibitory concentration (IC50) values were calculated. Contaminant concentration and exposure duration were identified as the primary determinants influencing cytotoxic responses. Concentrations employed in the binary and ternary combination assays were selected based on IC50 values obtained from individual treatments in HK-2 and SK-N-SH cell lines.
(§2) Due to the high binding affinity of OTA for serum proteins, all treatments were conducted in medium supplemented with 2% FBS to minimize potential interference with toxicological outcomes. For cytotoxicity evaluation, 100 μL of cell suspension (8 × 10^3 cells/well) was seeded into 96-well plates. Upon reaching approximately 80% confluence, the culture medium was replaced with fresh medium containing varying concentrations of PAT, OTA, ACM, or their combinations. Cells were then incubated for 24 or 48 h, after which cell viability was assessed. Concentrations used for individual mycotoxin exposures are provided in Table S1, while those for binary and ternary mixture exposures are listed in Table S2.
(§3) Cells were diluted to a density of 8 × 10^3 cells/well and seeded in 96-well culture plates. After 24 h incubation, all cells were exposed to various concentrations of individual or combined contaminants and allowed to grow in an incubator for 24 h and 48 h, respectively. The cytotoxicity of the two different cell lines was determined using a CCK-8 kit according to the manufacturer’s instructions. After treatment, 10 μL CCK-8 solution was added to each well (10% culture volume) and incubated for 2 h at 37 °C. Absorbance values (A) were measured at 450 nm using a microplate reader (Thermo Fisher Scientific, Waltham, MA, USA). All treatments were performed in six replicates, and cell activity was calculated as follows: Cell Viability(%)=Aexperiment −A(blank)/Acontrol−A(blank)× 100
(§4) The dose–effect relationship for PAT, OTA, and ACM was calculated using the […] proposed by Chou and Talalay. fa/fu=D/Dm^m
(§5) D was the concentration of the contamination, fa was the cell proliferation inhibition rate, and fu was the unaffected fraction (fu = 1 − fa). Dm was the median effect dose for the 50% inhibition of cell proliferation. m was the coefficient indicating the shape of the dose–effect relationship (m = 1, m > 1, and m < 1 each indicated hyperbolic, sigmoidal, and flat sigmoidal dose–effect curves). The method employed the Dm parameter to measure the cytotoxicity of individual contamination.
(§6) When the composition of contaminations extended to binary or ternary, the interactions of multiple contaminations were assayed by means of combination index model (CI) based on the median effect principle, as the CI values calculated according to a generic formula: nCIx=∑j=1n(D)j/(Dx)j
(§7) ^n(CI)x referred to n kind of contaminant combined cell inhibition rate for x% of composite index, (D)j was referred to the joint action of n type of toxin to a total dose of x% cell inhibition rate, and (Dx)j referred to the combination of each contamination effect itself when dose of x% cell inhibition rate. Overall, the types of combined effects represented by CI = 0.9–1.1, CI < 0.9, and CI > 1.1 were additive, synergistic, and antagonistic, respectively.
(§8) In addition, the impact of contaminants on the combined effects was assessed using the dose reduction index (DRI). DRI indicated a multiplicative reduction in the dose required to produce the same effect when the contaminant was mixed compared to when used alone. […] The DRI was calculated as follows: n(CI)x=∑j=1n(D)j/(Dm)j=∑j=1n1/(DRI)j or (DRI)j=(D)j/(Dm)j
(§9) The IC50 values of the three different contaminations exposed to the two cell lines was calculated by GraphPad Prism 9.4.0 software. […]

SK-N-SH cells [2] = settings: 24 h; cited from earlier work
HK-2 cells = test: CCK-8 cell viability, individual and combined exposure (CI/DRI analysis), HK-2 cells; assay type: cell-based, human; settings: for DRI (dose reduction index): in PAT+OTA+ACM group, from low to high doses; for IC50: Homo sapiens
Protocol: as §1, §2, §3, §4, §5, §6, §7, §8, §9

Caco-2 cells = settings: cited from earlier work
[3] = SK-N-SH cells, 24 h, CCK-8, mean ± SEM, n = 6, read-out: IC50
[4] = SK-N-SH cells, 48 h, CCK-8, mean ± SEM, n = 6, read-out: IC50
[5] = HK-2 cells, 24 h, CCK-8, mean ± SEM, n = 6, read-out: IC50
[6] = HK-2 cells, 48 h, CCK-8, mean ± SEM, n = 6, read-out: IC50
[7] = SK-N-SH, 24 h, in PAT+OTA group

SMILES	IC50 (SK-N-SH cells [1]; [3])	IC50 (SK-N-SH cells [1]; [4])	IC50 (SK-N-SH cells [2])	DRI (dose reduction index) (HK-2 cells; HK-2, 24 h)	IC50 (HK-2 cells; [5])	IC50 (HK-2 cells; [6])	IC50 (SK-N-SH cells [1]; SK-N-SH, 24 h)	IC50 (SK-N-SH cells [1]; SK-N-SH, 48 h)	DRI (dose reduction index) (SK-N-SH cells [1]; [7])	DRI (dose reduction index) (SK-N-SH cells [1]; SK-N-SH, 48 h, in OTA+ACM group, Fa > 0.5)	IC50 (Caco-2 cells)	IC50 (HK-2 cells; HK-2, 24 h)	IC50 (HK-2 cells; HK-2, 48 h)
C/C(=N\C#N)N(C)Cc1ccc(Cl)nc1 [ACM, acetamiprid]	700 ± 34.4 µg/mL	550 ± 31.6 µg/mL	~10600 µM	greater than 1	1160 ± 38.7 µg/mL	900.2 ± 4.1 µg/mL							
C[C@@H]1Cc2c(Cl)cc(C(=O)N[C@@H](Cc3ccccc3)C(=O)O)c(O)c2C(=O)O1 [OTA, ochratoxin A]							7 ± 0.357 µg/mL	4.5 ± 0.415 µg/mL	greater than 1	greater than 1	145 µM	2.5 ± 0.049 µg/mL	1 ± 0.021 µg/mL
O=C1C=C2C(=CCOC2O)O1 (centres unmarked) [PAT, Patulin]	0.5 ± 0.024 µg/mL	0.25 ± 0.001 µg/mL		greater than 1	0.5 ± 0.005 µg/mL	0.4 ± 0.006 µg/mL			greater than 1		16 µM		

— PMC12656219, “Cytotoxic Effects Induced by Combined Exposure of the Patulin, Ochratoxin A, and Acetamiprid to HK-2 and SK-N-SH Cell Lines” (Toxins, 2025)
